Laboratory results taken from ChEMBL document CHEMBL4765347, “Radiomodulatory effect of a non-electrophilic NQO1 inducer identified in a screen of new 6, 8-diiodoquinazolin-4(3H)-ones carrying a sulfonamide moiety” (Eur J Med Chem, 2020).

What follows are compounds tested on Nrf2 (Mus musculus) (assay: Activation of Nrf2 in mouse Hepa1c1c7 cells assessed as increase in NQO1 activity using menadione as substrate incubated for 20 mins followed by substrate addition and measured after 30 mins by spectrophotometry). Conditions: filed as activator, time 50.0 min.

Row | Compound | Activity | CD
1 | Cc1cccc([N+](=O)[O-])c1NC(=O)CSc1nc2c(I)cc(I)cc2c(=O)n1-c1ccc(S(N)(=O)=O)cc1 | Dose-dependent effect | 50 µM

Each compound was assayed on Nrf2 (Mus musculus) (assay: Activation of Nrf2 in mouse Hepa1c1c7 cells assessed as increase in NQO1 activity at 5 uM using menadione as substrate incubated for 20 mins followed by substrate addition and measured after 30 mins by spectrophotometry relative to control). Conditions: filed as activator, time 50.0 min.

Row | Compound | T/C
2 | Cc1cc([N+](=O)[O-])ccc1NC(=O)CSc1nc2c(I)cc(I)cc2c(=O)n1-c1ccc(S(N)(=O)=O)cc1 | 1.06
3 | NS(=O)(=O)c1ccc(-n2c(SCC(=O)Nc3ccc([N+](=O)[O-])cc3[N+](=O)[O-])nc3c(I)cc(I)cc3c2=O)cc1 | 1.08
4 | CCc1cccc(NC(=O)CSc2nc3c(I)cc(I)cc3c(=O)n2-c2ccc(S(N)(=O)=O)cc2)c1 | 1.04
5 | CCOc1ccc(NC(=O)CSc2nc3c(I)cc(I)cc3c(=O)n2-c2ccc(S(N)(=O)=O)cc2)cc1 | 1
6 | CCc1ccccc1NC(=O)CSc1nc2c(I)cc(I)cc2c(=O)n1-c1ccc(S(N)(=O)=O)cc1 | 1.01

Each compound was assayed on Nrf2 (Mus musculus) (assay: Activation of Nrf2 in mouse Hepa1c1c7 cells assessed as increase in NQO1 activity at 10 uM using menadione as substrate incubated for 20 mins followed by substrate addition and measured after 30 mins by spectrophotometry relative to control). Conditions: filed as activator, time 50.0 min.

Row | Compound | T/C
7 | Cc1cc([N+](=O)[O-])ccc1NC(=O)CSc1nc2c(I)cc(I)cc2c(=O)n1-c1ccc(S(N)(=O)=O)cc1 | 1.28
8 | NS(=O)(=O)c1ccc(-n2c(SCC(=O)Nc3ccc([N+](=O)[O-])cc3[N+](=O)[O-])nc3c(I)cc(I)cc3c2=O)cc1 | 1.2
9 | CCc1cccc(NC(=O)CSc2nc3c(I)cc(I)cc3c(=O)n2-c2ccc(S(N)(=O)=O)cc2)c1 | 1.09
10 | CCOc1ccc(NC(=O)CSc2nc3c(I)cc(I)cc3c(=O)n2-c2ccc(S(N)(=O)=O)cc2)cc1 | 0.99
11 | CCc1ccccc1NC(=O)CSc1nc2c(I)cc(I)cc2c(=O)n1-c1ccc(S(N)(=O)=O)cc1 | 1.01

These compounds were tested on Nrf2 (Mus musculus) (assay: Activation of Nrf2 in mouse Hepa1c1c7 cells assessed as increase in NQO1 activity at 20 uM using menadione as substrate incubated for 20 mins followed by substrate addition and measured after 30 mins by spectrophotometry relative to control). Conditions: filed as activator, time 50.0 min.

Row | Compound | T/C
12 | Cc1cc([N+](=O)[O-])ccc1NC(=O)CSc1nc2c(I)cc(I)cc2c(=O)n1-c1ccc(S(N)(=O)=O)cc1 | 1.53
13 | NS(=O)(=O)c1ccc(-n2c(SCC(=O)Nc3ccc([N+](=O)[O-])cc3[N+](=O)[O-])nc3c(I)cc(I)cc3c2=O)cc1 | 1.36
14 | CCc1cccc(NC(=O)CSc2nc3c(I)cc(I)cc3c(=O)n2-c2ccc(S(N)(=O)=O)cc2)c1 | 1.15
15 | CCOc1ccc(NC(=O)CSc2nc3c(I)cc(I)cc3c(=O)n2-c2ccc(S(N)(=O)=O)cc2)cc1 | 1.09
16 | CCc1ccccc1NC(=O)CSc1nc2c(I)cc(I)cc2c(=O)n1-c1ccc(S(N)(=O)=O)cc1 | 1.01

The compounds below were run against Nuclear factor erythroid 2-related factor 2 (Mus musculus) (UniProt Q60795) (assay: Activation of Nrf2 in mouse Hepa1c1c7 cells assessed as increase in NQO1 activity at 25 uM using menadione as substrate incubated for 20 mins followed by substrate addition and measured after 30 mins by spectrophotometry relative to control). Conditions: filed as activator, time 50.0 min.
Sequence of Nuclear factor erythroid 2-related factor 2 (Mus musculus) (Q60795 whole entry, looked up): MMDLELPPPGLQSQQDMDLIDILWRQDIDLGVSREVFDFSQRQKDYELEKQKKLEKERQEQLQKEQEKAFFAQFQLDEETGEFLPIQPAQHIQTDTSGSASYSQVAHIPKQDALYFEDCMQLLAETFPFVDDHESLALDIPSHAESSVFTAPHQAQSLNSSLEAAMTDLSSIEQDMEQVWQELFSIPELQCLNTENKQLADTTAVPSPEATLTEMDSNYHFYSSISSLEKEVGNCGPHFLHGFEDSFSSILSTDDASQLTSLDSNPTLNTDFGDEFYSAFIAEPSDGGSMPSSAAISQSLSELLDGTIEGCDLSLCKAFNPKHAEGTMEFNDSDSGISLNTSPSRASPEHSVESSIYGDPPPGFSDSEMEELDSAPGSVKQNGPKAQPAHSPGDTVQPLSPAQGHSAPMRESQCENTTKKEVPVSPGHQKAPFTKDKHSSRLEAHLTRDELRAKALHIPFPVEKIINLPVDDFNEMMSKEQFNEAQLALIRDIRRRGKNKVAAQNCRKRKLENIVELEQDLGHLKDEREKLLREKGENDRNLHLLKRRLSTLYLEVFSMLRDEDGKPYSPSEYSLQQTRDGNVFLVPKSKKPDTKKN

Row | Compound | T/C
17 | NS(=O)(=O)c1ccc(-n2c(SCC(=O)Nc3ccccc3)nc3c(I)cc(I)cc3c2=O)cc1 | 1.26
18 | Cc1cccc([N+](=O)[O-])c1NC(=O)CSc1nc2c(I)cc(I)cc2c(=O)n1-c1ccc(S(N)(=O)=O)cc1 | 1.34

These compounds were tested against Nuclear factor erythroid 2-related factor 2 (Mus musculus) (UniProt Q60795) (assay: Activation of Nrf2 in mouse Hepa1c1c7 cells assessed as increase in NQO1 activity at 40 uM using menadione as substrate incubated for 20 mins followed by substrate addition and measured after 30 mins by spectrophotometry relative to control). Conditions: filed as activator, time 50.0 min.

Row | Compound | T/C
19 | NS(=O)(=O)c1ccc(-n2c(SCC(=O)Nc3ccc([N+](=O)[O-])cc3[N+](=O)[O-])nc3c(I)cc(I)cc3c2=O)cc1 | 1.68
20 | CCc1cccc(NC(=O)CSc2nc3c(I)cc(I)cc3c(=O)n2-c2ccc(S(N)(=O)=O)cc2)c1 | 1.3
21 | CCOc1ccc(NC(=O)CSc2nc3c(I)cc(I)cc3c(=O)n2-c2ccc(S(N)(=O)=O)cc2)cc1 | 1.16
22 | CCc1ccccc1NC(=O)CSc1nc2c(I)cc(I)cc2c(=O)n1-c1ccc(S(N)(=O)=O)cc1 | 1.05

Each compound was assayed against Nuclear factor erythroid 2-related factor 2 (Mus musculus) (UniProt Q60795) (assay: Activation of Nrf2 in mouse Hepa1c1c7 cells assessed as increase in NQO1 activity at 50 uM using menadione as substrate incubated for 20 mins followed by substrate addition and measured after 30 mins by spectrophotometry relative to control). Conditions: filed as activator, time 50.0 min.

Row | Compound | T/C
23 | NS(=O)(=O)c1ccc(-n2c(SCC(=O)Nc3ccccc3)nc3c(I)cc(I)cc3c2=O)cc1 | 1.47
24 | Cc1cccc([N+](=O)[O-])c1NC(=O)CSc1nc2c(I)cc(I)cc2c(=O)n1-c1ccc(S(N)(=O)=O)cc1 | 1.94

These compounds were tested on Nrf2 (Mus musculus) (assay: Activation of Nrf2 in mouse Hepa1c1c7 cells assessed as increase in NQO1 activity at 0.4 uM using menadione as substrate incubated for 20 mins followed by substrate addition and measured after 30 mins by spectrophotometry relative to control). Conditions: filed as activator, time 50.0 min.

Row | Compound | T/C
25 | NS(=O)(=O)c1ccc(-n2c(SCC(=O)Nc3ccccc3)nc3c(I)cc(I)cc3c2=O)cc1 | 1.03
26 | Cc1cccc([N+](=O)[O-])c1NC(=O)CSc1nc2c(I)cc(I)cc2c(=O)n1-c1ccc(S(N)(=O)=O)cc1 | 0.95

Each compound was assayed on Nrf2 (Mus musculus) (assay: Activation of Nrf2 in mouse Hepa1c1c7 cells assessed as increase in NQO1 activity at 0.8 uM using menadione as substrate incubated for 20 mins followed by substrate addition and measured after 30 mins by spectrophotometry relative to control). Conditions: filed as activator, time 50.0 min.

Row | Compound | T/C
27 | NS(=O)(=O)c1ccc(-n2c(SCC(=O)Nc3ccccc3)nc3c(I)cc(I)cc3c2=O)cc1 | 1
28 | Cc1cccc([N+](=O)[O-])c1NC(=O)CSc1nc2c(I)cc(I)cc2c(=O)n1-c1ccc(S(N)(=O)=O)cc1 | 0.93

What follows are compounds tested on Nrf2 (Mus musculus) (assay: Activation of Nrf2 in mouse Hepa1c1c7 cells assessed as increase in NQO1 activity at 1.6 uM using menadione as substrate incubated for 20 mins followed by substrate addition and measured after 30 mins by spectrophotometry relative to control). Conditions: filed as activator, time 50.0 min.

Row | Compound | T/C
29 | NS(=O)(=O)c1ccc(-n2c(SCC(=O)Nc3ccccc3)nc3c(I)cc(I)cc3c2=O)cc1 | 1.03
30 | Cc1cccc([N+](=O)[O-])c1NC(=O)CSc1nc2c(I)cc(I)cc2c(=O)n1-c1ccc(S(N)(=O)=O)cc1 | 0.89

The compounds below were run on Nrf2 (Mus musculus) (assay: Activation of Nrf2 in mouse Hepa1c1c7 cells assessed as increase in NQO1 activity at 2.5 uM using menadione as substrate incubated for 20 mins followed by substrate addition and measured after 30 mins by spectrophotometry relative to control). Conditions: filed as activator, time 50.0 min.

Row | Compound | T/C
31 | Cc1cc([N+](=O)[O-])ccc1NC(=O)CSc1nc2c(I)cc(I)cc2c(=O)n1-c1ccc(S(N)(=O)=O)cc1 | 1
32 | NS(=O)(=O)c1ccc(-n2c(SCC(=O)Nc3ccc([N+](=O)[O-])cc3[N+](=O)[O-])nc3c(I)cc(I)cc3c2=O)cc1 | 1.04
33 | CCc1cccc(NC(=O)CSc2nc3c(I)cc(I)cc3c(=O)n2-c2ccc(S(N)(=O)=O)cc2)c1 | 1.04
34 | CCOc1ccc(NC(=O)CSc2nc3c(I)cc(I)cc3c(=O)n2-c2ccc(S(N)(=O)=O)cc2)cc1 | 1.02
35 | CCc1ccccc1NC(=O)CSc1nc2c(I)cc(I)cc2c(=O)n1-c1ccc(S(N)(=O)=O)cc1 | 0.97

These compounds were tested on Nrf2 (Mus musculus) (assay: Activation of Nrf2 in mouse Hepa1c1c7 cells assessed as increase in NQO1 activity at 1.25 uM using menadione as substrate incubated for 20 mins followed by substrate addition and measured after 30 mins by spectrophotometry relative to control). Conditions: filed as activator, time 50.0 min.

Row | Compound | T/C
36 | Cc1cc([N+](=O)[O-])ccc1NC(=O)CSc1nc2c(I)cc(I)cc2c(=O)n1-c1ccc(S(N)(=O)=O)cc1 | 0.99
37 | NS(=O)(=O)c1ccc(-n2c(SCC(=O)Nc3ccc([N+](=O)[O-])cc3[N+](=O)[O-])nc3c(I)cc(I)cc3c2=O)cc1 | 1.03
38 | CCc1cccc(NC(=O)CSc2nc3c(I)cc(I)cc3c(=O)n2-c2ccc(S(N)(=O)=O)cc2)c1 | 1.05
39 | CCOc1ccc(NC(=O)CSc2nc3c(I)cc(I)cc3c(=O)n2-c2ccc(S(N)(=O)=O)cc2)cc1 | 0.99
40 | CCc1ccccc1NC(=O)CSc1nc2c(I)cc(I)cc2c(=O)n1-c1ccc(S(N)(=O)=O)cc1 | 0.99

The compounds below were run against Nuclear factor erythroid 2-related factor 2 (Mus musculus) (UniProt Q60795) (assay: Activation of Nrf2 in mouse Hepa1c1c7 cells assessed as increase in NQO1 activity at 6.25 uM using menadione as substrate incubated for 20 mins followed by substrate addition and measured after 30 mins by spectrophotometry relative to control). Conditions: filed as activator, time 50.0 min.

Row | Compound | T/C
41 | NS(=O)(=O)c1ccc(-n2c(SCC(=O)Nc3ccccc3)nc3c(I)cc(I)cc3c2=O)cc1 | 1.11
42 | Cc1cccc([N+](=O)[O-])c1NC(=O)CSc1nc2c(I)cc(I)cc2c(=O)n1-c1ccc(S(N)(=O)=O)cc1 | 0.91

Each compound was assayed against Nuclear factor erythroid 2-related factor 2 (Mus musculus) (UniProt Q60795) (assay: Activation of Nrf2 in mouse Hepa1c1c7 cells assessed as increase in NQO1 activity at 12.5 uM using menadione as substrate incubated for 20 mins followed by substrate addition and measured after 30 mins by spectrophotometry relative to control). Conditions: filed as activator, time 50.0 min.

Row | Compound | T/C
43 | NS(=O)(=O)c1ccc(-n2c(SCC(=O)Nc3ccccc3)nc3c(I)cc(I)cc3c2=O)cc1 | 1.18
44 | Cc1cccc([N+](=O)[O-])c1NC(=O)CSc1nc2c(I)cc(I)cc2c(=O)n1-c1ccc(S(N)(=O)=O)cc1 | 1.05

The compounds below were run on Nrf2 (Mus musculus) (assay: Activation of Nrf2 in mouse Hepa1c1c7 cells assessed as increase in NQO1 activity at 0.313 uM using menadione as substrate incubated for 20 mins followed by substrate addition and measured after 30 mins by spectrophotometry relative to control). Conditions: filed as activator, time 50.0 min.

Row | Compound | T/C
45 | Cc1cc([N+](=O)[O-])ccc1NC(=O)CSc1nc2c(I)cc(I)cc2c(=O)n1-c1ccc(S(N)(=O)=O)cc1 | 1.01
46 | NS(=O)(=O)c1ccc(-n2c(SCC(=O)Nc3ccc([N+](=O)[O-])cc3[N+](=O)[O-])nc3c(I)cc(I)cc3c2=O)cc1 | 1.01
47 | CCc1cccc(NC(=O)CSc2nc3c(I)cc(I)cc3c(=O)n2-c2ccc(S(N)(=O)=O)cc2)c1 | 1.03
48 | CCOc1ccc(NC(=O)CSc2nc3c(I)cc(I)cc3c(=O)n2-c2ccc(S(N)(=O)=O)cc2)cc1 | 1.01
49 | CCc1ccccc1NC(=O)CSc1nc2c(I)cc(I)cc2c(=O)n1-c1ccc(S(N)(=O)=O)cc1 | 0.99

What follows are compounds tested on Nrf2 (Mus musculus) (assay: Activation of Nrf2 in mouse Hepa1c1c7 cells assessed as increase in NQO1 activity at 0.625 uM using menadione as substrate incubated for 20 mins followed by substrate addition and measured after 30 mins by spectrophotometry relative to control). Conditions: filed as activator, time 50.0 min.

Row | Compound | T/C
50 | Cc1cc([N+](=O)[O-])ccc1NC(=O)CSc1nc2c(I)cc(I)cc2c(=O)n1-c1ccc(S(N)(=O)=O)cc1 | 1.01
51 | NS(=O)(=O)c1ccc(-n2c(SCC(=O)Nc3ccc([N+](=O)[O-])cc3[N+](=O)[O-])nc3c(I)cc(I)cc3c2=O)cc1 | 1.04
52 | CCc1cccc(NC(=O)CSc2nc3c(I)cc(I)cc3c(=O)n2-c2ccc(S(N)(=O)=O)cc2)c1 | 1.02
53 | CCOc1ccc(NC(=O)CSc2nc3c(I)cc(I)cc3c(=O)n2-c2ccc(S(N)(=O)=O)cc2)cc1 | 1.02
54 | CCc1ccccc1NC(=O)CSc1nc2c(I)cc(I)cc2c(=O)n1-c1ccc(S(N)(=O)=O)cc1 | 0.97

What follows are compounds tested on Nrf2 (Mus musculus) (assay: Activation of Nrf2 in mouse Hepa1c1c7 cells assessed as increase in NQO1 activity at 3.125 uM using menadione as substrate incubated for 20 mins followed by substrate addition and measured after 30 mins by spectrophotometry relative to control). Conditions: filed as activator, time 50.0 min.

Row | Compound | T/C
55 | NS(=O)(=O)c1ccc(-n2c(SCC(=O)Nc3ccccc3)nc3c(I)cc(I)cc3c2=O)cc1 | 1.06
56 | Cc1cccc([N+](=O)[O-])c1NC(=O)CSc1nc2c(I)cc(I)cc2c(=O)n1-c1ccc(S(N)(=O)=O)cc1 | 0.83
